Measured values from patent US9901095B2, “Processes for the preparation of pesticidal compounds” (Dow AgroSciences LLC, priority 2013, dated 2018).

Legend:
[1] = test system: Green Peach Aphid (Myzus persicae) (MYZUPE); test: Bioassay on Green Peach Aphid (GPA), foliar spray on cabbage seedlings; format: in vivo; conditions: 200 ppm spray on cabbage seedlings; live aphids counted after three days; Abbott's correction
Experimental: Several molecules disclosed herein were tested against GPA using procedures described below.
Cabbage seedling grown in 3-in pots, with 2-3 small (3-5 cm) true leaves, were used as test substrate. The seedlings were infested with […] (wingless adult and nymph stages) one day prior to chemical application. Four pots with individual seedlings were used for each treatment. Test compounds (2 mg) were dissolved in 2 mL of acetone/methanol (1:1) solvent, forming stock solutions of 1000 ppm test compound. The stock solutions were diluted 5× with 0.025% Tween 20 in water to obtain the solution at 200 ppm test compound. A hand-held aspirator-type sprayer was used for spraying a solution to both sides of the cabbage leaves until runoff. Reference plants (solvent check) were sprayed with the diluent only containing 20% by volume acetone/methanol (1:1) solvent. Treated plants were held in a holding room for three days at approximately 25° C. and ambient relative humidity (RH) prior to grading. Evaluation was conducted by counting the number of live aphids per plant under a microscope. Percent Control was measured by using Abbott's correction formula (W. S. Abbott, “A Method of Computing the Effectiveness of an Insecticide” J. Econ. Entomol 18 (1925), pp. 265-267) as follows. Corrected % Control=100*(X−Y)/X
X=No. of live aphids on solvent check plants and
Y=No. of live aphids on treated plants
The results are indicated in the table entitled “Table 1: GPA (MYZUPE) and sweetpotato whitefly-crawler (BEMITA) Rating Table”.

[2] = test system: Sweetpotato Whitefly Crawler (Bemisia tabaci) (BEMITA); test: Bioassay on Sweetpotato Whitefly Crawler, foliar spray on cotton plants; format: in vivo; conditions: 200 ppm spray on cotton plants; live nymphs counted after 8-9 days; Abbott's correction
Experimental: Cotton plants grown in 3-inch pots, with 1 small (3-5 cm) true leaf, were used at test substrate. The plants were placed in a room with whitely adults. Adults were allowed to deposit eggs for 2-3 days. After a 2-3 day egg-laying period, plants were taken from the adult whitefly room. Adults were blown off leaves using a hand-held Devilbliss sprayer (23 psi). Plants with egg infestation (100-300 eggs per plant) were placed in a holding room for 5-6 days at 82° F. and 50% RH for egg hatch and crawler stage to develop. Four cotton plants were used for each treatment. Compounds (2 mg) were dissolved in 1 mL of acetone solvent, forming stock solutions of 2000 ppm. The stock solutions were diluted 10× with 0.025% Tween 20 in water to obtain a test solution at 200 ppm. A hand-held Devilbliss sprayer was used for spraying a solution to both sides of cotton leaf until runoff. Reference plants (solvent check) were sprayed with the diluent only. Treated plants were held in a holding room for 8-9 days at approximately 82° F. and 50% RH prior to grading. Evaluation was conducted by counting the number of live nymphs per plant under a microscope.

| SMILES | MYZUPE rating (% Control of Mortality) [1] | BEMITA rating (% Control of Mortality) [2] |
| --- | --- | --- |
| Cl.Nc1c[nH]nc1Cl [Compound 1a, 3-Chloro-1H-pyrazol-4-amine hydrochloride] | B (More than 0-Less than 80) | B (More than 0-Less than 80) |
| CC(=O)Nc1c[nH]nc1Cl [Compound 1b, N-(3-Chloro-1H-pyrazol-4-yl)acetamide] | B (More than 0-Less than 80) | B (More than 0-Less than 80) |
| CC(=O)Nc1cn(-c2cccnc2)nc1Cl [Compound 1c, N-(3-Chloro-1-(pyridin-3-yl)-1H-pyrazol-4-yl)acetamide] | B (More than 0-Less than 80) | B (More than 0-Less than 80) |
| CCNc1cn(-c2cccnc2)nc1Cl [Compound 1d, 3-Chloro-N-ethyl-1-(pyridin-3-yl)-1H-pyrazol-amine] | B (More than 0-Less than 80) | B (More than 0-Less than 80) |
| CCN(C(=O)CCCl)c1cn(-c2cccnc2)nc1Cl [Compound 2a, 3-Chloro-N-(3-chloro-1-(pyridin-3-yl)-1H-pyrazol-4-yl)-N-ethylpropanamide] | A (80-100) | A (80-100) |
| CCN(C(=O)CCSCCC(F)(F)F)c1cn(-c2cccnc2)nc1Cl [Compound 6.2, N-(3-Chloro-1-(pyridin-3-yl)-1H-pyrazol-4-yl)-N-ethyl-3-((3,3,3-trifluoropropyl)thio)propanamide] | A (80-100) | A (80-100) |
| CCN(C(=O)CC[S+]([O-])CCC(F)(F)F)c1cn(-c2cccnc2)nc1Cl (centres unmarked) [Compound 7.2, N-(3-Chloro-1-(pyridin-3-yl)-1H-pyrazol-4-yl)-N-ethyl-3-((3,3,3-trifluoropropyl)sulfoxo)propanamide] | A (80-100) | A (80-100) |
